From patent publication US10435376B2, “Derivatives of 1H-imidazole-4,5-dicarboxamide and use thereof in preparation of anticoccidial drugs” (GUANGZHOU INSIGHTER BIOTECHNOLOGY CO., LTD., priority 2015, dated 2019)
Where two headings read alike, the source gives them in different places.

Experiments:
Format in all cases: in vivo
Eimeria tenella = test: Inhibitory effects of the derivatives on Eimeria tenella of chicken (60 ppm in feed); details: for responders at 60 ppm, 60 µg/mL / response vs control in vivo at 60 ppm, 60 µg/mL: Eimeria tenella, 168 h; for responders at 60 ppm, 60 µg/mL: read-out: Survival rate (%); for response vs control in vivo at 60 ppm, 60 µg/mL: relative to group 1 (not infected, not treated), read-out: Relative weight gain (%); for Score (bloody stool score): 5 days after inoculation
Source text: (§1) One-day-old yellow-feather fast-growing broilers were raised in a coccidia-free environment, and divided into groups for trial at the age of 18 days when no coccidian oocysts were detected by microscopy in their faeceas. Weak or overweight broilers were removed, and healthy broilers were divided into 30 groups with 50 broilers in each group and weight difference between each two broilers was below 20 g. Groups 1 and 2 were respectively a control group that the broilers were neither infected nor treated, and a control group that the broilers were infected but not treated. Groups 3 to 30 were respectively administrated with different derivatives. The broilers were given ad libitum access to feed and water when the feed was added with different medicines according to Table 1 at the day the broilers were divided. 24 Hours after the trial began, 250,000 sporulated Eimeria tenella oocysts were inoculated via an oral gavage into the crop of every broiler in each group except group 1. Bloody stool score was measured 5 days after the inoculation and the trial was ended 7 days after the inoculation. Relative weight gain (%), survival rate (%) and the bloody stool score were evaluated.
(§2) Bloody stool score: 0, no bloody stool was observed; 1, bloody stool below 25%; 2, 25 to 50% of bloody stool; 3, 50 to 75% of bloody stool; and 4, bloody stool over 75%.
(§3) Relative weight gain (%): The broilers were weighed at the beginning and the end of the trial to calculate the average weight gain and relative weigh gain. Relative weight gain=(average weight gain of each group/average weight gain of group 1)×100%.
(§4) Deaths of the broilers: Necropsy was performed and the amount of dead broilers in each group was recorded to calculate the survival rate. Survival rate=(total amount of the broilers in each group−amount of deaths caused by coccidial infection)/total amount of the broilers in each group×100%.

Eimeria necatrix = test: Inhibitory effects of the derivatives on Eimeria necatrix of chicken; details: for responders at 60 ppm, 60 µg/mL / response vs control in vivo at 60 ppm, 60 µg/mL: Eimeria necatrix, 168 h; for responders at 60 ppm, 60 µg/mL: read-out: Survival rate (%); for response vs control in vivo at 60 ppm, 60 µg/mL: feed or water, read-out: Relative weight gain (%); for response vs control in vivo at 60 ppm, 60 µg/mL / Score (bloody stool score): broilers, 60 ppm in feed, 100,000 E. necatrix oocysts; for Score (bloody stool score): 5 days after inoculation
Method: as §2, §3, §4
as §1, with “into 10” for “into 30”, “to 10” for “to 30”, “Table 4” for “Table 1”, “began, 100,000” for “began, 250,000”, “Eimeria necatrix” for “Eimeria tenella”, “were evaluated (according to embodiment 2).” for “were evaluated.”

Eimeria acervulina = test: Inhibitory effects of the derivatives on Eimeria acervulina of chicken; details: for responders at 60 ppm, 60 µg/mL / response vs control in vivo at 60 ppm, 60 µg/mL: Eimeria acervulina, 168 h; for responders at 60 ppm, 60 µg/mL: read-out: Survival rate (%); for response vs control in vivo at 60 ppm, 60 µg/mL: feed or water, read-out: Relative weight gain (%)
Method: as §3, §4
One-day-old yellow-feather fast-growing broilers were raised in a coccidia-free environment, and divided into groups for trial at the age of 18 days when no coccidian oocysts were detected by microscopy in their faeceas. Weak or overweight broilers were removed, and healthy broilers were divided into 10 groups with 50 broilers in each group and weight difference between each two broilers was below 20 g. Groups 1 and 2 were respectively a control group that the broilers were neither infected nor treated, and a control group that the broilers were infected but not treated. Groups 3 to 10 were respectively administrated with different derivatives. The broilers were given ad libitum access to feed and water when the feed was added with different medicines according to Table 3 at the day the broilers were divided. 24 Hours after the trial began, 400,000 sporulated Eimeria acervulina oocysts were inoculated via an oral gavage into the crop of every broiler in each group except group 1. The trial was ended 7 days after the inoculation. Relative weight gain (%), survival rate (%) and feed conversion ratio were evaluated.

[1] = broilers, 60 ppm in feed, 250,000 E. tenella oocysts, 7 days after inoculation
[2] = broilers, 60 ppm in feed, 250,000 E. tenella oocysts
[3] = broilers, 60 ppm in feed, 400,000 E. acervulina oocysts, 7 days after inoculation
[4] = broilers, 60 ppm in feed, 400,000 E. acervulina oocysts

| Structure (SMILES) | responders at 60 ppm, 60 µg/mL (Eimeria tenella; [1]) | response vs control in vivo at 60 ppm, 60 µg/mL (Eimeria tenella; [2]) | Score (bloody stool score) (Eimeria tenella; [2]) | responders at 60 ppm, 60 µg/mL (Eimeria necatrix) | response vs control in vivo at 60 ppm, 60 µg/mL (Eimeria necatrix) | Score (bloody stool score) (Eimeria necatrix) | responders at 60 ppm, 60 µg/mL (Eimeria acervulina; [3]) | response vs control in vivo at 60 ppm, 60 µg/mL (Eimeria acervulina; [4]) | Feed conversion ratio (Eimeria acervulina; [4]) | responders at 60 ppm, 60 µg/mL (Eimeria acervulina) | responders at 60 ppm, 60 µg/mL (Eimeria tenella) |
| --- | --- | --- | --- | --- | --- | --- | --- | --- | --- | --- | --- |
| COc1ccc(Cn2cnc(C(N)=O)c2C(N)=O)cc1 [IST15053, 1-(4-methoxybenzyl)-1H-imidazole-4,5-dicarboxamide] | 100% | 82.5% | 3 (50 to 75% of bloody stool) |  |  |  |  |  |  |  |  |
| CN1CCN(C(=O)c2nc[nH]c2C(=O)N2CCN(C)CC2)CC1 [IST15008, (1H-imidazole-4,5-diyl) bis((4-methylpiperazin-1-yl)methanone)] | 100% | 89.7% | 2 (25 to 50% of bloody stool) | 100% | 81.2% | 3 (50 to 75% of bloody stool) |  |  |  |  |  |
| Cc1ccc(Cn2cnc(C(N)=O)c2C(N)=O)cc1 [IST15046, 1-(4-methylbenzyl)-1H-imidazole-4,5-dicarboxamide] | 100% | 78.4% | 3 (50 to 75% of bloody stool) |  |  |  |  |  |  |  |  |
| CCCn1cnc(C(N)=O)c1C(N)=O [IST15038, 1-propyl-1H-imidazole-4,5-dicarboxamide] | 100% | 82.1% | 3 (50 to 75% of bloody stool) | 100% | 79.5% | 2 (25 to 50% of bloody stool) | 100% | 73.8% | 2.135 |  |  |
| CS(=O)(=O)c1ccc(Cn2cnc(C(N)=O)c2C(N)=O)cc1 [IST15150, 1-(4-(methylsulfonyl)benzyl)-1H-imidazole-4,5-dicarboxamide] | 100% | 86.3% | 2 (25 to 50% of bloody stool) |  |  |  |  |  |  |  |  |
| O=C1NC(=O)c2[nH]cnc21 [IST15015, pyrrolo[3,4-d]imidazole-4,6(1H,5H)-dione] | 100% | 72.5% | 4 (bloody stool over 75%) |  |  |  |  |  |  |  |  |
| CCCCCn1cnc(C(N)=O)c1C(N)=O [IST15116, 1-pentyl-1H-imidazole-4,5-dicarboxamide] | 100% | 78.6% | 3 (50 to 75% of bloody stool) |  |  |  |  |  |  |  |  |
| CCn1cnc(C(=O)NC(C)=O)c1C(=O)NC(C)=O [IST15165, N^4,N^5-diacetyl-1-ethyl-1H-imidazole-4,5-dicarboxamide] | 100% | 89.7% | 2 (25 to 50% of bloody stool) |  |  |  |  |  |  |  |  |
| CC(C)n1cnc(C(N)=O)c1C(N)=O [IST15115, 1-isopropyl-1H-imidazole-4,5-dicarboxamide] | 100% | 85.9% | 3 (50 to 75% of bloody stool) |  |  |  |  |  |  |  |  |
| NC(=O)c1ncn(Cc2cccc(Cl)c2)c1C(N)=O [IST15041, 1-(3-chlorobenzyl)-1H-imidazole-4,5-dicarboxamide] | 100% | 85.4% | 3 (50 to 75% of bloody stool) |  |  |  |  |  |  |  |  |
| CCCCCCn1cnc(C(N)=O)c1C(N)=O [IST15162, 1-hexyl-1H-imidazole-4,5-dicarboxamide] | 100% | 81.6% | 3 (50 to 75% of bloody stool) |  |  |  |  |  |  |  |  |
| Cc1nc(=O)c2[nH]cnc2c(=O)[nH]1 [IST15016, 6-methylimidazo[4,5-e][1,3]diazepine-4,8(1H,5H)-dione] | 100% | 74.8% | 2 (25 to 50% of bloody stool) |  |  |  | 100% | 75.6% | 2.524 |  |  |
| NC(=O)c1ncn(Cc2ccc(Cl)c(Cl)c2)c1C(N)=O [IST15054, 1-(3,4-dichlorobenzyl)-1H-imidazole-4,5-dicarboxamide] | 100% | 71.4% | 4 (bloody stool over 75%) |  |  |  |  |  |  |  |  |
| CC(=O)NC(=O)c1ncn(Cc2ccc(Cl)cc2)c1C(=O)NC(C)=O [IST15151, N^4,N^5-diacetyl-1-(4-chlorobenzyl)-1H-imidazole-4,5-dicarboxamide] | 100% | 83.6% | 3 (50 to 75% of bloody stool) |  |  |  |  |  |  |  |  |
| NC(=O)c1ncn(Cc2cc([N+](=O)[O-])cc([N+](=O)[O-])c2)c1C(N)=O [IST15056, 1-(3,5-dinitrobenzyl)-1H-imidazole-4,5-dicarboxamide] |  | 81.3% | 3 (50 to 75% of bloody stool) |  |  |  |  | 72.5% | 2.405 | 100% | 100% |
| NC(=O)c1ncn(Cc2ccc(F)cc2)c1C(N)=O [IST15042, 1-(4-fluorobenzyl)-1H-imidazole-4,5-dicarboxamide] | 100% | 81.2% | 3 (50 to 75% of bloody stool) |  |  |  |  |  |  |  |  |
| NC(=O)c1ncn(Cc2ccc(Oc3ccc(Cl)cc3)cc2)c1C(N)=O [IST15167, 1-(4-(4-chlorophenoxy)benzyl)-1H-imidazole-4,5-dicarboxamide] | 100% | 82.7% | 3 (50 to 75% of bloody stool) | 100% | 75.8% | 3 (50 to 75% of bloody stool) |  |  |  |  |  |
| O=C(Nc1ccc([N+](=O)[O-])cc1)c1nc[nH]c1C(=O)Nc1ccc([N+](=O)[O-])cc1 [IST15009, N^4,N^5-bis(4-nitrophenyl)-1H-imidazole-4,5-dicarboxamide] |  | 82.6% | 3 (50 to 75% of bloody stool) |  |  |  |  |  |  |  | 100% |
| CCCCN1C(=O)c2nc[nH]c2C1=O [IST15013, 5-butylpyrrolo[3,4-d]imidazole-4,6(1H,5H)-dione] | 100% | 88.8% | 3 (50 to 75% of bloody stool) |  |  |  |  |  |  |  |  |
| CCC(=O)NC(=O)c1ncn(Cc2ccc(Cl)cc2)c1C(=O)NC(=O)CC [IST15152, 1-(4-chlorobenzyl)-N^4,N^5-dipropionyl-1H-imidazole-4,5-dicarboxamide] | 100% | 85.6% | 3 (50 to 75% of bloody stool) |  |  |  |  |  |  |  |  |
| NC(=O)c1ncn(Cc2c(Cl)cccc2Cl)c1C(N)=O [IST15044, 1-(2,6-dichlorobenzyl)-1H-imidazole-4,5-dicarboxamide] | 100% | 79.8% | 3 (50 to 75% of bloody stool) |  |  |  |  |  |  |  |  |
